Results as given in ChEMBL document CHEMBL1158961, “Picrasinoside H, a new quassinoid glucoside, and related compounds from the stem wood of Picrasma ailanthoides” (1991).

Key:
Format in all cases: functional
Details in all cases: read-out: ED50 (the source's name)
KB = experiment: Cytotoxicity against human KB cells
A549 = experiment: Cytotoxicity against human A549 cells
HCT-8 = experiment: Cytotoxicity against human HCT8 cells
[1] = Cytotoxicity against human RPMI cells
P388 = experiment: Cytotoxicity against mouse P388 cells
TE-671 = experiment: Cytotoxicity against human TE671 cells

Measured: EC50

COC1=C[C@@H](C)[C@@H]2C[C@H]3O[C@@H](O[C@@H]4O[C@H](CO)[C@@H](O)[C@H](O)[C@H]4O)C[C@H]4[C@](C)(O)[C@H](OC)[C@@H](O)[C@H]([C@@]2(C)C1=O)[C@@]34C [PICRASINOSIDE G]
not listed: TE-671
≤ 4 µg/mL: all other assays above

COC1=C[C@@H](C)[C@@H]2C[C@H]3O[C@@H](O[C@@H]4O[C@H](CO)[C@@H](O)[C@H](O)[C@H]4O)C[C@H]4[C@](C)(OC(C)=O)[C@@H]5OCO[C@H]5[C@H]([C@@]2(C)C1=O)[C@@]34C [PICRASINOSIDE H]
≤ 4 µg/mL: all assays above

COC1=C[C@@H](C)[C@@H]2C[C@H]3O[C@@H](O[C@@H]4O[C@H](CO)[C@@H](O)[C@H](O)[C@H]4O)C[C@H]4[C@@H](C)[C@H](OC)[C@@H](OC(C)=O)[C@H]([C@@]2(C)C1=O)[C@@]34C [PICRASINOSIDE D]
≤ 4 µg/mL: all assays above

COC1=C[C@@H](C)C2C[C@H]3O[C@@H](O[C@@H]4O[C@H](CO)[C@@H](O)[C@H](O)[C@H]4O)C[C@H]4[C@@H](C)[C@@H]5OCO[C@H]5[C@@H]([C@@]34C)[C@@]2(C)C1=O (stereo not given in full) [PICRASINOSIDE C]
≤ 4 µg/mL: all assays above

COC1=C[C@@H](C)[C@@H]2C[C@H]3O[C@@H](O[C@@H]4O[C@H](CO)[C@@H](O)[C@H](O)[C@H]4O)C[C@H]4C(C)=C(OC)C(=O)[C@H]([C@@]2(C)C1=O)[C@@]34C [PICRASINOSIDE B]
≤ 4 µg/mL: all assays above

COC1=C[C@@H](C)[C@@H]2C[C@H]3O[C@@H](O[C@@H]4O[C@H](CO)[C@@H](O)[C@H](O)[C@H]4O)C[C@H]4[C@](C)(O)[C@H](OC)[C@@H](OC(C)=O)[C@H]([C@@]2(C)C1=O)[C@@]34C [PICRASINOSIDE E]
≤ 4 µg/mL: all assays above
